Molecular target: human LPAR1 (Homo sapiens, UniProt Q92633)
Experiment: LPAR1 intracellular calcium mobilization assay (antagonist mode, FLIPR)
Assay type: cell-based
Conditions: CHO-K1 EDG2 cells expressing human LPAR1; test compound 0.5 nM to 10 μM pre-incubated 60 minutes at 37° C., then LPA 18:2 at EC80 concentration (100 nM)
Description: In vitro LPAR1 activity was measured in an intracellular calcium mobilization assay. CHO-K1 EDG2 cells (DiscoverX cat #93-0644C2) expressing human LPAR1 (NM_001401.3) were seeded in a total volume of 25 μL of Dulbecco's Modification of Eagle's Medium (DMEM) with 10% Fetal Bovine Serum, 1× PenStrepGlutamine, 300 μg/ml Hygromycin, and 800 μg/ml G418 into 384-well tissue culture plate (Grenier #781091) at 15,000 cells/well and incubated at 37° C. overnight. Prior to testing, 25 μL Calcium Loading Dye Component A (FLIPR Calcium 6 Assay Kit Molecular Device # R8190) and 2.5 mM Probenecid (Invitrogen # P36400, prepared fresh) in Hank's Balanced Salt Solution (Corning #21-023-CV), 20 mM HEPES (Corning #25-060-CI), 0.1% Bovine Serum Albumin (Sigma-Aldrich # A7906-500G) was add to the cells for 60 minutes at 37° C.
Agonist dose curves of LPA 18:2 (Avanti Polar Lipids cat #857138, 0.5 nM to 10 μM) were recorded to determine the LPA 18:2 EC80 for subsequent antagonist assays. For agonist dose curves, cells were removed from the incubator 2 hours after dye loading and transferred to the FLIPR Tetra instrument (Molecular Devices, San Jose, CA). Calcium mobilization was monitored for 5 min and 10 μL 6×LPA in HBSS/20 mM Hepes/0.1% bovine serum albumin (BSA) was added to the cells 5 seconds into the assay.
To determine the LPAR1 antagonist activity of test compounds, cells were pre-incubated with test compound at a dose range of 0.5 nM to 10 μM, followed by LPA at EC80 concentration (100 nM). After dye loading, cells were removed from the incubator and 0.3 μL of 200× antagonist was added. Cells were incubated for 60 minutes at 37° C. Antagonist activity was measured on a FLIPR Tetra. Calcium mobilization was monitored for 3.5 minutes and 10 μL 6×EC80 LPA in HBSS, 20 mM HEPES, and 0.1% BSA was added to the cells 5 seconds into the assay. Signal amplitude (Maximum minus minimum) values were plotted against log10 of antagonist concentration using Dose Response Tool (Gilead Sciences Inc.) to determine […].
To assess the antagonistic potential of exemplified compounds […] were determined for Compounds 1 to 66 in the LPAR1 calcium mobilization assay. The compound numbers correspond to the compound numbers in Examples 1 to 18. N/A=not available.

human LPAR1, sequence (Q92633 whole entry): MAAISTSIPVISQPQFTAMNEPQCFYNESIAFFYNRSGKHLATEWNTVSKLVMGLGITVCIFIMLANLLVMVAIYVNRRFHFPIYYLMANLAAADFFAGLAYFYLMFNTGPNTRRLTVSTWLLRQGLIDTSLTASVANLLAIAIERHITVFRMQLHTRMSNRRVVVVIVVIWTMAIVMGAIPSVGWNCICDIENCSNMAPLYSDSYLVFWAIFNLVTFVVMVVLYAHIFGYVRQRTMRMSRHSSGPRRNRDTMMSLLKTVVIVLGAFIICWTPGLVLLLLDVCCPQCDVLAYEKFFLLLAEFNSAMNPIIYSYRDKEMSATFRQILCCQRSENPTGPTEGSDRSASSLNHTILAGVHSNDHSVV

Row | SMILES | EC50 [nM]
1 | C[C@@H](OC(=O)Nc1c(-c2ccc(C(=O)NC34CC(F)(C3)C4)cn2)nnn1C)c1cc(F)cnc1Cl [Compound 46, (R)-1-(2-chloro-5-fluoropyridin-3-yl)ethyl (4-(5-((3-fluorobicyclo-[1.1.1]pentan-1-yl)carbamoyl)-pyridin-2-yl)-1-methyl-1H-1,2,3-triazol-5-yl)-carbamate] | 88.1
2 | C[C@@H](OC(=O)Nc1c(-c2ccc(C(=O)NC34CC(C#N)(C3)C4)cn2)nnn1C)c1cc(F)cnc1Cl [Compound 47, (R)-1-(2-chloro-5-fluoropyridin-3-yl)ethyl (4-(5-((3-cyanobicyclo-[1.1.1]pentan-1-yl)carbamoyl)-pyridin-2-yl)-1-methyl-1H-1,2,3-triazol-5-yl)-carbamate] | < 4.6
3 | C[C@@H](OC(=O)Nc1c(-c2ccc(C(=O)Nc3ccc(C#N)cc3)cn2)nnn1C)c1cc(F)cnc1Cl [Compound 49, (R)-1-(2-chloro-5-fluoropyridin-3-yl)ethyl (4-(5-((4-cyanophenyl)-carbamoyl)pyridin-2-yl)-1-methyl-1H-1,2,3-triazol-5-yl)carbamate] | 74.3
4 | C[C@@H](OC(=O)Nc1c(-c2ccc(C(=O)Nc3ccnc(C#N)c3)cn2)nnn1C)c1cc(F)cnc1Cl [Compound 50, (R)-1-(2-chloro-5-fluoropyridin-3-yl)ethyl (4-(5-((2-cyanopyridin-4-yl)carbamoyl)-pyridin-2-yl)-1-methyl-1H-1,2,3-triazol-5-yl)-carbamate] | 8.7
5 | C[C@@H](OC(=O)Nc1c(-c2ccc(C(=O)Nc3ncc(C(F)(F)F)s3)cn2)nnn1C)c1cc(F)cnc1Cl [Compound 53, (R)-1-(2-chloro-5-fluoropyridin-3-yl)ethyl (1-methyl-4-(5-((5-(trifluoro-methyl)thiazol-2-yl)carbamoyl)-pyridin-2-yl)-1H-1,2,3-triazol-5-yl)carbamate] | 19.4
6 | C[C@@H](OC(=O)Nc1c(-c2ccc(C(=O)NC34CC(Cl)(C3)C4)cn2)nnn1C)c1cccnc1F [Compound 55, (R)-1-(2-fluoropyridin-3-yl)ethyl (4-(5-((3-chlorobicyclo[1.1.1]pentan-1-yl)carbamoyl)pyridin-2-yl)-1-methyl-1H-1,2,3-triazol-5-yl)carbamate] | 58.1
7 | C[C@@H](OC(=O)Nc1c(-c2ccc(C(=O)NC34CC(C(F)(F)F)(C3)C4)cn2)nnn1C)c1cccnc1F [Compound 56, (R)-1-(2-fluoropyridin-3-yl)ethyl (1-methyl-4-(5-((3-(trifluoro-methyl)bicyclo[1.1.1]-pentan-1-yl)carbamoyl)-pyridin-2-yl)-1H-1,2,3-triazol-5-yl)carbamate] | 139
8 | Cc1nc(-c2nnn(C)c2NC(=O)O[C@H](C)c2cccnc2Cl)ccc1C(=O)NC12CC(Cl)(C1)C2 [Compound 58, (R)-1-(2-chloropyridin-3-yl)ethyl (4-(5-((3-chlorobicyclo[1.1.1]pentan-1-yl)carbamoyl)-6-methylpyridin-2-yl)-1-methyl-1H-1,2,3-triazol-5-yl)carbamate] | 48.3
9 | C[C@@H](OC(=O)Nc1c(-c2ncc(C(=O)NC34CC(C#N)(C3)C4)cc2F)nnn1C)c1cccnc1Cl [Compound 59, (R)-1-(2-chloropyridin-3-yl)ethyl (4-(5-((3-cyanobicyclo[1.1.1]pentan-1-yl)carbamoyl)-3-fluoropyridin-2-yl)-1-methyl-1H-1,2,3-triazol-5-yl)carbamate] | 23.2
10 | C[C@@H](OC(=O)Nc1c(-c2ncc(C(=O)NC34CC(F)(C3)C4)cc2F)nnn1C)c1cccnc1Cl [Compound 64, (R)-1-(2-chloropyridin-3-yl)ethyl (4-(3-fluoro-5-((3-fluorobicyclo[1.1.1]pentan-1-yl)carbamoyl)pyridin-2-yl)-1-methyl-1H-1,2,3-triazol-5-yl)carbamate] | 93.5

Results, then the compound that gave them:

Row | EC50 [nM] | SMILES
11 | < 4.6 | C[C@@H](OC(=O)Nc1c(-c2ccc(C(=O)Nc3ccnc(C(F)(F)F)c3)cn2)nnn1C)c1cc(F)cnc1Cl [Compound 45, (R)-1-(2-chloro-5-fluoropyridin-3-yl)ethyl (1-methyl-4-(5-((2-(trifluoromethyl)pyridin-4-yl)carbamoyl)pyridin-2-yl)-1H-1,2,3-triazol-5-yl)carbamate]
12 | 80.7 | C[C@@H](OC(=O)Nc1c(-c2ccc(C(=O)NC34CC(C(F)F)(C3)C4)cn2)nnn1C)c1cc(F)cnc1Cl [Compound 48, (R)-1-(2-chloro-5-fluoropyridin-3-yl)ethyl (4-(5-((3-(difluoromethyl)-bicyclo[1.1.1]-pentan-1-yl)-carbamoyl)pyridin-2-yl)-1-methyl-1H-1,2,3-triazol-5-yl)carbamate]
13 | < 4.6 | C[C@@H](OC(=O)Nc1c(-c2ccc(C(=O)Nc3cc(Cl)nc(Cl)c3)cn2)nnn1C)c1cc(F)cnc1Cl [Compound 51, (R)-1-(2-chloro-5-fluoropyridin-3-yl)ethyl (4-(5-((2,6-dichloro-pyridin-4-yl)-carbamoyl)pyridin-2-yl)-1-methyl-1H-1,2,3-triazol-5-yl)carbamate]
14 | 281 | C[C@@H](OC(=O)Nc1c(-c2ccc(C(=O)Nc3nc(C(F)(F)F)co3)cn2)nnn1C)c1cc(F)cnc1Cl [Compound 52]
15 | < 4.6 | C#CC12CC(NC(=O)c3ccc(-c4nnn(C)c4NC(=O)O[C@H](C)c4cc(F)cnc4Cl)nc3)(C1)C2 [Compound 54, (R)-1-(2-chloro-5-fluoropyridin-3-yl)ethyl (4-(5-((3-ethynylbicyclo-[1.1.1]pentan-1-yl)carbamoyl)-pyridin-2-yl)-1-methyl-1H-1,2,3-triazol-5-yl)-carbamate]
16 | 717 | C[C@@H](OC(=O)Nc1c(-c2ccc(C(=O)NC34CC(F)(C3)C4)cn2)nnn1C)c1cccnc1F [Compound 57, (R)-1-(2-fluoropyridin-3-ylethyl (4-(5-((3-fluorobicyclo[1.1.1]-pentan-1-yl)carbamoyl)-pyridin-2-yl)-1-methyl-1H-1,2,3-triazol-5-yl)-carbamate]
17 | 93.4 | C[C@@H](OC(=O)Nc1c(-c2ccc(C(=O)NC34CC(F)(C3)C4)c(Cl)n2)nnn1C)c1cccnc1Cl [Compound 60, (R)-1-(2-chloropyridin-3-yl)ethyl (4-(6-chloro-5-((3-fluorobicyclo[1.1.1]pentan-1-yl)carbamoyl)pyridin-2-yl)-1-methyl-1H-1,2,3-triazol-5-yl)carbamate]
18 | 233 | C[C@@H](OC(=O)Nc1c(-c2cc(F)c(C(=O)NC34CC(C#N)(C3)C4)cn2)nnn1C)c1cccnc1Cl [Compound 61, (R)-1-(2-chloropyridin-3-yl)ethyl (4-(5-((3-cyanobicyclo[1.1.1]pentan-1-yl)carbamoyl)-4-fluoropyridin-2-yl)-1-methyl-1H-1,2,3-triazol-5-yl)carbamate]
19 | 14.5 | C[C@@H](OC(=O)Nc1c(-c2ccc(C(=O)NC34CC(C#N)(C3)C4)c(C(F)(F)F)n2)nnn1C)c1cccnc1Cl [Compound 62, (R)-1-(2-chloropyridin-3-yl)ethyl (4-(5-((3-cyanobicyclo[1.1.1]pentan-1-yl)carbamoyl)-6-(trifluoromethyl)pyridin-2-yl)-1-methyl-1H-1,2,3-triazol-5-yl)carbamate]
20 | 145 | C[C@@H](OC(=O)Nc1c(-c2ccc(C(=O)NC34CC(F)(C3)C4)c(F)n2)nnn1C)c1cccnc1Cl [Compound 63, (R)-1-(2-chloropyridin-3-yl)ethyl (4-(6-fluoro-5-((3-fluorobicyclo[1.1.1]pentan-1-yl)carbamoyl)pyridin-2-yl)-1-methyl-1H-1,2,3-triazol-5-yl)carbamate]
21 | < 4.6 | C[C@@H](OC(=O)Nc1c(-c2ccc(C(=O)NC34CC(C#N)(C3)C4)c(Cl)n2)nnn1C)c1cccnc1Cl [Compound 65, (R)-1-(2-chloropyridin-3-yl)ethyl (4-(6-chloro-5-((3-cyanobicyclo[1.1.1]pentan-1-yl)carbamoyl)pyridin-2-yl)-1-methyl-1H-1,2,3-triazol-5-yl)carbamate]
22 | 210 | C[C@@H](OC(=O)Nc1c(-c2ccc(C(=O)NC34CC(F)(C3)C4)c(C(F)(F)F)n2)nnn1C)c1cccnc1Cl [Compound 66, (R)-1-(2-chloropyridin-3-yl)ethyl (4-(5-((3-fluorobicyclo[1.1.1]pentan-1-yl)carbamoyl)-6-(trifluoromethyl)pyridin-2-yl)-1-methyl-1H-1,2,3-triazol-5-yl)carbamate]

Source: patent publication US12503454B2, “LPA receptor antagonists and uses thereof” (Gilead Sciences, Inc., priority 2021, dated 2025)
